Results: ChEMBL document CHEMBL3112404, “Click chemistry inspired facile synthesis and bioevaluation of novel triazolyl analogs of Ludartin” (Bioorg Med Chem Lett, 2014)

Tests used:
T98G [1] = test: Cytotoxicity against human T98G cells assessed as growth inhibition at 50 uM by colorimetric sulphorhodamine B assay; type: functional; conditions: read-out: GI
HCT-116 [2] = test: Cytotoxicity against human HCT116 cells assessed as growth inhibition at 50 uM by colorimetric sulphorhodamine B assay; type: functional; conditions: read-out: GI
A549 [3] = test: Cytotoxicity against human A549 cells assessed as growth inhibition at 50 uM by colorimetric sulphorhodamine B assay; type: functional; conditions: read-out: GI
MCF7 [4] = test: Cytotoxicity against human MCF7 cells assessed as growth inhibition at 50 uM by colorimetric sulphorhodamine B assay; type: functional; conditions: read-out: GI
PC-3 [5] = test: Cytotoxicity against human PC3 cells assessed as growth inhibition at 50 uM by colorimetric sulphorhodamine B assay; type: functional; conditions: read-out: GI
HCT-116 [6] = test: Cytotoxicity against human HCT116 cells assessed as growth inhibition by colorimetric sulphorhodamine B assay; type: functional, cell-based
MCF7 [7] = test: Cytotoxicity against human MCF7 cells assessed as growth inhibition by colorimetric sulphorhodamine B assay; type: functional, cell-based
A549 [8] = test: Cytotoxicity against human A549 cells assessed as growth inhibition by colorimetric sulphorhodamine B assay; type: functional, cell-based
T98G [9] = test: Cytotoxicity against human T98G cells assessed as growth inhibition by colorimetric sulphorhodamine B assay; type: functional, cell-based
PC-3 [10] = test: Cytotoxicity against human PC3 cells assessed as growth inhibition by colorimetric sulphorhodamine B assay; type: functional, cell-based

Structure (SMILES)	inhibition of growth at 50 µM (T98G [1])	inhibition of growth at 50 µM (HCT-116 [2])	inhibition of growth at 50 µM (A549 [3])	inhibition of growth at 50 µM (MCF7 [4])	inhibition of growth at 50 µM (PC-3 [5])	IC50 (HCT-116 [6])	IC50 (MCF7 [7])	IC50 (A549 [8])	IC50 (T98G [9])	IC50 (PC-3 [10])
COc1ccc(-n2cc(CNC[C@@H]3C(=O)O[C@H]4[C@H]3CCC(C)=C3C[C@H]5O[C@@]5(C)[C@@H]34)nn2)cc1	0%	0%	20%	0%	0%					
CC1=C2C[C@H]3O[C@@]3(C)[C@@H]2[C@H]2OC(=O)[C@@H](CNCc3cn(-c4ccccc4[N+](=O)[O-])nn3)[C@@H]2CC1	0%	0%	17%	0%	0%					
CC1=C2C[C@H]3O[C@@]3(C)[C@@H]2[C@H]2OC(=O)[C@@H](CNCc3cn(-c4cccc([N+](=O)[O-])c4)nn3)[C@@H]2CC1	0%	0%	0%	0%	0%					
CC1=C2C[C@H]3O[C@@]3(C)[C@@H]2[C@H]2OC(=O)[C@@H](CNCc3cn(-c4ccc([N+](=O)[O-])cc4)nn3)[C@@H]2CC1	0%	0%	26%	0%	0%					
CC1=C2C[C@H]3O[C@@]3(C)[C@@H]2[C@H]2OC(=O)[C@@H](CNCc3cn(-c4ccccc4C#N)nn3)[C@@H]2CC1	42%	20%	46%	12%	22%					
CC1=C2C[C@H]3O[C@@]3(C)[C@@H]2[C@H]2OC(=O)[C@@H](CNCc3cn(-c4cccc(C#N)c4)nn3)[C@@H]2CC1	0%	0%	10%	0%	0%					
CC1=C2C[C@H]3O[C@@]3(C)[C@@H]2[C@H]2OC(=O)[C@@H](CNCc3cn(-c4ccc(C#N)cc4)nn3)[C@@H]2CC1	0%	0%	0%	0%	0%					
CC1=C2C[C@H]3O[C@@]3(C)[C@@H]2[C@H]2OC(=O)[C@@H](CNCc3cn(-c4ccc(F)cc4F)nn3)[C@@H]2CC1	12%	0%	19%	29%	21%					
CC1=C2C[C@H]3O[C@@]3(C)[C@@H]2[C@H]2OC(=O)[C@@H](CNCc3cn(-c4cccc(CO)c4)nn3)[C@@H]2CC1	0%	11%	47%	13%	0%					
CC1=C2C[C@H]3O[C@@]3(C)[C@@H]2[C@H]2OC(=O)[C@@H](CNCc3cn(-c4ccc(C)c(C)c4)nn3)[C@@H]2CC1	99%	49%	73%	84%	46%	39 µM	8.5 µM	11 µM	12 µM	38 µM
CC1=C2C[C@H]3O[C@@]3(C)[C@@H]2[C@H]2OC(=O)[C@@H](CNCc3cn(-c4cc(Cl)c(Cl)cc4Cl)nn3)[C@@H]2CC1	77%	74%	91%	81%	73%	18 µM	12 µM	21 µM	17 µM	11 µM
CC1=C2C[C@H]3O[C@@]3(C)[C@@H]2[C@H]2OC(=O)[C@@H](CNCc3cn(-c4ccccc4)nn3)[C@@H]2CC1	73%	58%	77%	77%	56%	37 µM	21 µM	24 µM	21 µM	54 µM
CC1=C2C[C@H]3O[C@@]3(C)[C@@H]2[C@H]2OC(=O)[C@@H](CNCc3cn(-c4cccc5ccccc45)nn3)[C@@H]2CC1	32%	48%	21%	0%	8%					
CC1=C2C[C@H]3O[C@@]3(C)[C@@H]2[C@H]2OC(=O)[C@@H](CNCc3cn(-c4ccccc4Cl)nn3)[C@@H]2CC1	37%	6%	32%	12%	28%					
CC1=C2C[C@H]3O[C@@]3(C)[C@@H]2[C@H]2OC(=O)[C@@H](CNCc3cn(-c4ccccc4Br)nn3)[C@@H]2CC1	17%	79%	68%	22%	0%	26 µM		24 µM		
CC1=C2C[C@H]3O[C@@]3(C)[C@@H]2[C@H]2OC(=O)[C@@H](CNCc3cn(-c4ccc(Br)cc4)nn3)[C@@H]2CC1	58%	72%	74%	79%	28%	35 µM	32 µM	39 µM	52 µM	
COc1ccccc1-n1cc(CNC[C@@H]2C(=O)O[C@H]3[C@H]2CCC(C)=C2C[C@H]4O[C@@]4(C)[C@@H]23)nn1	34%	38%	21%	0%	40%					
COc1cccc(-n2cc(CNC[C@@H]3C(=O)O[C@H]4[C@H]3CCC(C)=C3C[C@H]5O[C@@]5(C)[C@@H]34)nn2)c1	0%	0%	8%	6%	0%					
C=C1C(=O)O[C@H]2[C@H]1CCC(C)=C1C[C@H]3O[C@@]3(C)[C@@H]12 [LUDARTIN]	97%	97%	97%	100%	97%		0.5 µM		6.3 µM	
